Data published in paper PMC12563652 (International Journal of Molecular Sciences, 2025).

Columns and labels:
human TAAR1 = biological target: T1, human TAAR1 (Homo sapiens, UniProt Q96RJ0); test: TAAR1 agonist activity, Hit Hunter cAMP assay; assay type: cell-based
T1 sequence (Q96RJ0 1-339): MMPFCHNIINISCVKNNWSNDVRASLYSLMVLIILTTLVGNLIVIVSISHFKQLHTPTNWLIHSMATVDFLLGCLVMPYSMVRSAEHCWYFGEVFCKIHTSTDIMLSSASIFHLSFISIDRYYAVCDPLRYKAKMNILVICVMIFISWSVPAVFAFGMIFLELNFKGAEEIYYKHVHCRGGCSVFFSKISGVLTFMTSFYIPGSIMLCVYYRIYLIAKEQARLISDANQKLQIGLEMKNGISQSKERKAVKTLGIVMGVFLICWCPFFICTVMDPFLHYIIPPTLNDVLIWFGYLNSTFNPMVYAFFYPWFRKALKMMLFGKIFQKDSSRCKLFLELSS
Experimental: The intrinsic activity of the TAAR1 receptor will be assessed according to the manufacturer’s protocol, using the Hit Hunter® cAMP assay by DiscoverX. This assay enables monitoring of GPCR activation in cells stably expressing TAAR1 by measuring changes in the level of the secondary messenger, cAMP. The cAMP Hunter cell lines were cultured from frozen stocks following standard procedures. Cells were plated in white-walled 384-well microplates at a total volume of 20 µL per well and incubated at 37 °C for the required period before analysis. To assess agonist activity, cells were exposed to the test compound to trigger a response. The culture medium was then removed and replaced with 15 µL of a 2:1 mixture of HBSS and 10 mM Hepes containing the cAMP XS+ antibody reagent. Sample stocks were diluted to prepare a 4× concentration in assay buffer. Subsequently, 5 µL of the 4× sample was added to each well, and the plates were incubated at either 37 °C or room temperature for 30 or 60 min. The vehicle was used at a concentration of 1%. After incubating the compounds for the required time, the assay signal was produced by adding 20 µL of the cAMP XS+ ED/CL lysis cocktail and incubating for one hour. This was followed by a three-hour incubation with 20 µL of the cAMP XS+EA reagent at room temperature. After signal development, the microplates were read using a PerkinElmer Envision Reader to detect chemiluminescence.

3T3-L1 cells = test: Lipid accumulation (AdipoRed assay) in 3T3-L1 cells; assay type: cell-based, mouse
Experimental: The 3T3-L1 mouse embryonic fibroblast cell line (ATCC CRL-11605) was cultured according to the standard protocol in Dulbecco’s Modified Eagle Medium (DMEM) supplemented with 10% bovine calf serum, 100 µg/mL streptomycin, and 100 IU/mL penicillin, at 37 °C in a humidified atmosphere containing 5% CO2. Cells were seeded at a density of 10,000 cells/well in collagen type I–coated (10 µg/mL) 96-well plates and allowed to attach for 24 h. Differentiation was initiated by replacing the medium with induction medium composed of DMEM, 0.5 mM 3-isobutyl-1-methylxanthine (IBMX), 1 µM dexamethasone, and 10% fetal bovine serum (FBS). After 48 h (differentiation day 2), the medium was replaced with DMEM supplemented with 10% FBS and 10 µg/mL human recombinant insulin. After an additional 24 h, the medium was replaced with DMEM supplemented with 10% bovine calf serum, 100 µg/mL streptomycin, and 100 IU/mL penicillin. The medium was refreshed every 24 h for 10 consecutive days to allow full differentiation into adipocytes.
On day 10 of differentiation, cells were treated with test compounds for 24 h. To investigate the involvement of the TAAR1 receptor, cells were pre-treated for 15 min with the selective TAAR1 antagonist RTI-7470-44 (40 nM) before compound exposure. After incubation, the culture medium was removed, and wells were gently rinsed with 200 µL PBS and refilled with 200 µL PBS. AdipoRed reagent (5 µL; Lonza) was added to each well, mixed, and incubated at room temperature for 10 min. Fluorescence was measured using the POLARstar Omega plate reader (excitation 485 nm, emission 535 nm).

[1] = biological target: T2, 5-HT2C serotoninergic receptor (Homo sapiens, UniProt P28335); test: 5-HT2C intrinsic activity, antagonist mode (AequoScreen calcium mobilization); assay type: cell-based; conditions: n.a. = no activity at 10–5 M
T2 sequence (P28335 33-458): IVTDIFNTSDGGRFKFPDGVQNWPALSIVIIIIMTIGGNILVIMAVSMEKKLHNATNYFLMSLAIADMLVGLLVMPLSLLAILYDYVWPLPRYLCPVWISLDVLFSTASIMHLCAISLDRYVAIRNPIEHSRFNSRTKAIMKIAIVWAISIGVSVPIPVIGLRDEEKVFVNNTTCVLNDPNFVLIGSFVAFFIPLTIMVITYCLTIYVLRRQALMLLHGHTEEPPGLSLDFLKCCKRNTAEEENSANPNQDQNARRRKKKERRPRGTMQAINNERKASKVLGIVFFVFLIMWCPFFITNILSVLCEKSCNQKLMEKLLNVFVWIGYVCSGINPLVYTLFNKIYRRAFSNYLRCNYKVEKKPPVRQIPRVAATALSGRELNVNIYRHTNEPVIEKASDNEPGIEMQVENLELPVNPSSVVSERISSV
Experimental: (§1) The determination of intrinsic activity will be performed in accordance with the manufacturer’s Aequoscreen methodology—Perkin Elmer.
The cell density in the 96-well format was 5000 cells per well. Cell preparation for the assay was performed according to the manufacturer’s instructions for AequoScreen (PerkinElmer, Waltham, MA, USA). […] The cells suspension was applied onto the ligands with the injectors of the POLARstar optima reader (BMG Labtech, Ortenberg, Germany). […] The concentration and dilution series having four replicates were prepared as instructed in the AequoScreen Starter Kit Manual (PerkinElmer, Waltham, MA, USA). The wells received cell injections along with either the standard agonist or the compounds being evaluated, while the POLARstar optima reader documented the emitted light over a duration of 20 s. In the antagonist evaluation, cells were administered (50 μL) into the assay plate alongside antagonist solutions (50 μL). A single concentration of agonist (oxymetazoline) was injected (50 μL, final concentration EC80) into the preincubated (15–20 min) plate with cells and antagonist, and the emitted light was recorded for 20 s.

[2] = biological target: T2, 5-HT2C serotoninergic receptor; test: 5-HT2C intrinsic activity, agonist mode (AequoScreen calcium mobilization); assay type: cell-based; conditions: n.a. = no activity at 10–5 M
Experimental: as §1
The cell density in the 96-well format was 5000 cells per well. Cell preparation for the assay was performed according to the manufacturer’s instructions for AequoScreen (PerkinElmer, Waltham, MA, USA). […] The cells suspension was applied onto the ligands with the injectors of the POLARstar optima reader (BMG Labtech, Ortenberg, Germany). […] The concentration and dilution series having four replicates were prepared as instructed in the AequoScreen Starter Kit Manual (PerkinElmer, Waltham, MA, USA). The wells received cell injections along with either the standard agonist or the compounds being evaluated, while the POLARstar optima reader documented the emitted light over a duration of 20 s. In the antagonist evaluation, cells were administered (50 μL) into the assay plate alongside antagonist solutions (50 μL).

α2-adrenoceptor = test: Competitive radioligand binding, [3H]clonidine, rat cerebral cortex; conditions: n.a. = no activity at 10–5 M
Experimental: The competitive radioligand-binding assay assessed affinity for α1- and α2-adrenoceptors. Experiments were carried out in the rat cerebral cortex. […] The membrane preparation and assay technique followed the previously reported protocol [10]. Radioactivity was measured using the MicroBeta2 scintillation counter (PerkinElmer, Kraków, Poland). The data was adjusted to match a single-site curve-fitting formula using Prism 8 (GraphPad Software, La Jolla, CA, USA), and the Ki values were estimated by means of the Cheng–Prusoff formula.

Danio rerio larvae = test: Fructose-induced lipid disturbance in zebrafish larvae (Oil Red O); assay type: in vivo; conditions: 10 µg/mL with 4% fructose, 24 h
Experimental: Zebrafish larvae 4 dpf were incubated for another 24 h with 4% fructose (final solution) in embryo medium to induce metabolic disorders. Tested solutions (compounds in E3: JP-14 at concentration of 20 μg/mL or resveratrol of 40 μg/mL) were added to fructose solution (8% in E3). The final concentration of JP-14 was 10 μg/mL or resveratrol of 20 μg/mL. The control group was incubated with E3 only. Incubation was carried out in a 6-well plate (10 larvae/well) to which 3 mL of liquid was added per well. Larvae were then collected, euthanized with tricaine, and transferred to 4% formaldehyde solution. After 24 h, larvae were washed 3 times with PBS (Sigma-Aldrich, Germany) and stained for neutral lipids, similar to previous studies. Larvae incubated for 1 h in a solution of 0.25% oil red O (ORO, Merck, Darmstadt, Germany) in 60% isopropanol (Merck, Germany). The samples were then rinsed three times with 60% isopropanol and washed 6 times with PBS, then imaged on a microscope (OPTA-TECH MN16, Warszawa, Poland) and analyzed with the ImageJ FIJI program. […] Next, the samples were centrifuged (10 min, 3000 rpm, MPW-260R, MPW Med Instruments, Warszawa, Poland), and the amount of dye in supernatant was determined spectrophotometrically (MuLTISKAN.GO, Thermo Fisher Scientific Inc. Waltham, MA, USA) at a wavelength of 495 nm.

[H]/N=C(\N)NN=Cc1c(Cl)cncc1Cl [JP-14, (E)-2-((3,5-Dichloropyridin-4-yl)Methylene)Hydrazine-1-Carboximidamide]
maximum cell stimulation (cAMP level) compared with the highest concentration of tyramine (human TAAR1; TAAR1-expressing cells): about twice as high
EC50 (human TAAR1; cAMP accumulation, n.a. = no activity at 10–5 M, read-out: TAAR1 Ago EC50): 11.3 ± 1.4 µM
lipid-lowering effect under TAAR1 blockade (3T3-L1 cells; 10 µM + RTI-7470-44 (40 nM)): completely abolished
lipid accumulation (intracellular lipid content), reduction (3T3-L1 cells; 10 µM, compared to vehicle-treated controls): 35%
5-HT2C Ant EC50 [1]: did not exhibit any measurable agonistic or antagonistic activity
5-HT2C Ago EC50 [2]: did not exhibit any measurable agonistic or antagonistic activity
Ki (α2-adrenoceptor): 126 ± 27 nM
fructose-induced yolk enlargement (Danio rerio larvae): partially attenuated
